Measurements taken from patent US20240158446A1, “CYCLIC COMPOUND HAVING SELECTIVE INHIBITORY ACTION ON KRAS OVER HRAS AND NRAS” (CHUGAI SEIYAKU KABUSHIKI KAISHA, priority 2021, published 2024).
Where two headings read alike, the source gives them in different places. *1 amine or outer side, *2 acyl side, *3 side chain or, on linkers, in order; H or OH if unused. Where a SMILES comes first, the peptide text is derived from it. Bridges are numbered along the chain shown (N, C = ends). [ ]: non-standard residue; d: D form. The star is where a group is joined. hPhe(3-Cl-4-CF3) = N[C@@H](CCc1ccc(C(F)(F)F)c(Cl)c1)C(=O)O; X45 = O=C([C@H](Cc1ccc(C(F)(F)F)cc1)N(CCCF)[*:1])[*:2]; NEtPhe(4-Me) = CCN[C@@H](Cc1ccc(C)cc1)C(=O)O; NMeGly(cPent) = CN[C@H](C(=O)O)C1CCCC1; NMeD = CN[C@@H](CC(=O)O)C(=O)O; NMeL = CN[C@@H](CC(C)C)C(=O)O; NMeV = CN[C@H](C(=O)O)C(C)C; Morpholide = C1CN(*)CCO1; NMeA = CN[C@@H](C)C(=O)O; Ac5c = NC1(C(=O)O)CCCC1; Aze = O=C(O)[C@@H]1CCN1; Sar = CNCC(=O)O

Key:
[1] = molecular target: GDP-bound KRAS wild-type protein (Homo sapiens, UniProt P01116); experiment: Binding to KRAS by surface plasmon resonance (SPR), Single Cycle Kinetics; conditions: GDP-bound KRAS wild-type protein, read-out: KRAS KD
Sequence of GDP-bound KRAS wild-type protein (P01116 whole entry): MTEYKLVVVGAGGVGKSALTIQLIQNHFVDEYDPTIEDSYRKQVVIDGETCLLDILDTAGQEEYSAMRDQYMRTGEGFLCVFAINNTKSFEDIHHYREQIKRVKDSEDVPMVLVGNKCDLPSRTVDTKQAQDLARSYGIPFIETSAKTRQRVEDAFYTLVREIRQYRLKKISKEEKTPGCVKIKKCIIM

[2] = molecular target: GDP-bound NRAS wild-type protein (Homo sapiens, UniProt P01111); experiment: Binding to NRAS by surface plasmon resonance (SPR), Single Cycle Kinetics
Sequence of GDP-bound NRAS wild-type protein (P01111 whole entry): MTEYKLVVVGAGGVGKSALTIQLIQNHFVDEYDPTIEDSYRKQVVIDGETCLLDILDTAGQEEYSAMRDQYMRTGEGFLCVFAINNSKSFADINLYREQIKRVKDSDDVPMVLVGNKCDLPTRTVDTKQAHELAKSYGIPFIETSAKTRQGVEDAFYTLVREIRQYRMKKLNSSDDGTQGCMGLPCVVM

[3] = molecular target: GDP-bound HRAS wild-type protein (Homo sapiens, UniProt P01112); experiment: Binding to HRAS by surface plasmon resonance (SPR), Single Cycle Kinetics
Sequence of GDP-bound HRAS wild-type protein (P01112 whole entry): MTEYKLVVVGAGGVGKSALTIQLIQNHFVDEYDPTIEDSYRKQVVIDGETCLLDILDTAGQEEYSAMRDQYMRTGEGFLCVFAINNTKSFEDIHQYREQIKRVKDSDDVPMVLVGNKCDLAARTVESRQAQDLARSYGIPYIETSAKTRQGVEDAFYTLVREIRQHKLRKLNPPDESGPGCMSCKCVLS

[4] = SPR Single Cycle Kinetics, 1:1 binding model
[5] = SPR, GDP-bound NRAS wild-type protein vs GDP-bound KRAS wild-type protein
[6] = SPR, GDP-bound HRAS wild-type protein vs GDP-bound KRAS wild-type protein

| SMILES | Kd [1, 4] | Kd ([1]; SPR, Single Cycle Kinetics) | NRAS/KRAS (ratio of KD value with respect to NRAS to KD value with respect to KRAS) [2, 5] | HRAS/KRAS (ratio of KD value with respect to HRAS to KD value with respect to KRAS) [3, 6] | NRAS/KRAS (ratio of KD value for NRAS to KD value for KRAS) [2, 5] | HRAS/KRAS (ratio of KD value for HRAS to KD value for KRAS) [3, 6] | NRAS/KRAS (ratio of KD value with respect to GDP-bound NRAS wild-type protein to KD value with respect to KRAS) ([2]; SPR KD ratio NRAS/KRAS, class symbols) | HRAS/KRAS (ratio of KD value with respect to GDP-bound HRAS wild-type protein to KD value with respect to KRAS) ([3]; SPR KD ratio HRAS/KRAS, class symbols) |
| --- | --- | --- | --- | --- | --- | --- | --- | --- |
| CC[C@H](C)[C@@H]1NC(=O)[C@H](CC(C)C)N(C)C(=O)C[C@@H](C(=O)N2CCOCC2)N(C)C(=O)[C@H](C2CCCC2)N(C)C(=O)C2(CCCC2)NC(=O)[C@@H]2CCCN2C(=O)[C@H](CCc2ccc(C(F)(F)F)c(Cl)c2)NC(=O)CN(C)C(=O)[C@H](Cc2ccc(C(F)(F)F)cc2)N(CCCF)C(=O)CN(C)C(=O)CN(C)C1=O [PP0524] ([NMeL]I[Sar][Sar][X45][Sar][hPhe(3-Cl-4-CF3)]P[Ac5c][NMeGly(cPent)][NMeD]-Morpholide; lactam N-11) | 0.11 nM | – | B (a compound having 3 or more and less than 10 is denoted as B) | C (A compound having a KD ratio of 0.1 or more and less than 3 is denoted as C) | – | – | – | – |
| CC[C@H](C)[C@@H]1NC(=O)[C@H](CC(C)C)N(C)C(=O)C[C@@H](C(=O)N2CCOCC2)N(C)C(=O)[C@H](C(C)C)N(C)C(=O)C2(CCCC2)NC(=O)[C@@H]2CCCN2C(=O)[C@H](CCc2ccc(C(F)(F)F)c(Cl)c2)NC(=O)CN(C)C(=O)[C@H](Cc2ccc(C)cc2)N(CC)C(=O)[C@@H]2CCN2C(=O)[C@H](C)N(C)C1=O [PP0015] ([NMeL]I[NMeA][Aze][NEtPhe(4-Me)][Sar][hPhe(3-Cl-4-CF3)]P[Ac5c][NMeV][NMeD]-Morpholide; lactam N-11) | 2.7 nM | – | – | – | C (A compound having a KD ratio of 0.1 or more and less than 3 is denoted as C) | C (A compound having a KD ratio of 0.1 or more and less than 3 is denoted as C) | – | – |
| CCO[C@@H]1C[C@H]2C(=O)NC3(CCC3)C(=O)N(C)[C@@H](C3CCCC3)C(=O)N(C)[C@H](C(=O)N3CCOCC3)CC(=O)N(C)[C@@H](Cc3cccc(Cl)c3)C(=O)N[C@@H]([C@@H](C)CC)C(=O)N(C)CC(=O)N(C)[C@H]3CCCCCN(C3=O)[C@@H](Cc3ccc(C(F)(F)F)cc3)C(=O)N(C)CC(=O)N[C@@H](CCc3cc(F)c(C(F)(F)F)c(F)c3)C(=O)N2C1 [PP0857] | – | 1.4 nM | – | – | B (a compound having 3 or more and less than 10 is denoted as B) | B (a compound having 3 or more and less than 10 is denoted as B) | – | – |

Further lines, with some results ahead:

| Kd [1, 4] | Kd ([1]; SPR, Single Cycle Kinetics) | SMILES | NRAS/KRAS (ratio of KD value with respect to NRAS to KD value with respect to KRAS) [2, 5] | HRAS/KRAS (ratio of KD value with respect to HRAS to KD value with respect to KRAS) [3, 6] | NRAS/KRAS (ratio of KD value for NRAS to KD value for KRAS) [2, 5] | HRAS/KRAS (ratio of KD value for HRAS to KD value for KRAS) [3, 6] | NRAS/KRAS (ratio of KD value with respect to GDP-bound NRAS wild-type protein to KD value with respect to KRAS) ([2]; SPR KD ratio NRAS/KRAS, class symbols) | HRAS/KRAS (ratio of KD value with respect to GDP-bound HRAS wild-type protein to KD value with respect to KRAS) ([3]; SPR KD ratio HRAS/KRAS, class symbols) |
| --- | --- | --- | --- | --- | --- | --- | --- | --- |
| – | 0.069 nM | CCO[C@@H]1C[C@H]2C(=O)NC3(CCC3)C(=O)N(C)[C@@H](C3CCCC3)C(=O)N(C)[C@H](C(=O)N(C)C)CC(=O)N(C)[C@@H](Cc3ccccc3)C(=O)N[C@@H]([C@@H](C)CC)C(=O)N(C)CC(=O)N(C)[C@H]3C/C=C\CCN(C3=O)[C@@H](Cc3ccc(C(F)(F)F)cc3)C(=O)N(C)CC(=O)N[C@@H](CCc3cc(F)c(C(F)(F)F)c(F)c3)C(=O)N2C1 [PP1116, (2S,8S,12R,14S,20S,23S,27S,30S,36S,38Z)-27-benzyl-20-cyclopentyl-8-[2-[3,5-difluoro-4-(trifluoromethyl)phenyl]ethyl]-12-ethoxy-N,N,4,19,22,26,32,35-octamethyl-30-[(1S)-1-methylpropyl]-3,6,9,15,18,21,25,28,31,34,42-undecaoxo-2-[[4-(trifluoromethyl)phenyl]methyl]spiro[1,4,7,10,16,19,22,26,29,32,35-undecazatricyclo[34.5.1.0^10,14]dotetracont-38-ene-17,1′-cyclobutane]-23-carboxamide] | – | – | A (a compound having 10 or more and less than 20 is denoted as A) | A (a compound having 10 or more and less than 20 is denoted as A) | – | – |
| 0.26 nM | – | CCO[C@@H]1C[C@H]2C(=O)NC3(CC(C)(C)C3)C(=O)N(C)[C@@H](C3CCCC3)C(=O)N(C)[C@H](C(=O)N(C)CC)CC(=O)N(C)[C@@H](CC)C(=O)N[C@@H]([C@@H](C)CC)C(=O)N(C)CC(=O)N(C)[C@H]3C/C=C\CCN(C3=O)[C@@H](Cc3ccc(C(F)(F)F)cc3)C(=O)N(C)CC(=O)N[C@@H](CCc3ccc(Cl)c(Cl)c3)C(=O)N2C1 [PP2822] | – | – | – | – | A (a compound having 10 or more and less than 20 is denoted as A) | A (a compound having 10 or more and less than 20 is denoted as A) |
